Common to all, as to assay: Kinase Inhibition Assay
The target of experiment [1] is Cyclin-dependent kinase/G2/mitotic-specific cyclin- 1 (Homo sapiens, UniProt P06493). The protocol: (§1) The enzyme was assayed with a biotinylated peptide substrate and test compounds in the presence of 5 uM ATP/[gamma-33P]ATP in a streptavidin coated FlashPlate (Perkin-Elmer, Boston, MA). Inhibition of the enzymatic activity due to the compound was measured by observing a reduced amount of 33P-gamma-ATP incorporated into the immobilized peptide relative to untreated controls. Linear regression analysis of the percent of inhibition by the test compound was used to calculate IC50 values.

Experiment [2] deals with Vascular endothelial growth factor receptor 2 (Rattus norvegicus, UniProt O08775). Here is the method:
as §1

Experiment [3] deals with Platelet-derived growth factor receptor beta (Homo sapiens, UniProt P09619). Here is the method: as §1
The target in experiment [4] is T1, Glycogen synthase kinase-3 beta [7-25] (Oryctolagus cuniculus, UniProt G1T8E2).
T1 construct: 7-25
The protocol:
as §1

Some results are limits rather than exact numbers.

For orientation: IC50 means the concentration that inhibits the measured activity by half. Higher therefore signals lower potency.

Cyclin-dependent kinase/G2/mitotic-specific cyclin- 1, sequence (P06493 whole entry): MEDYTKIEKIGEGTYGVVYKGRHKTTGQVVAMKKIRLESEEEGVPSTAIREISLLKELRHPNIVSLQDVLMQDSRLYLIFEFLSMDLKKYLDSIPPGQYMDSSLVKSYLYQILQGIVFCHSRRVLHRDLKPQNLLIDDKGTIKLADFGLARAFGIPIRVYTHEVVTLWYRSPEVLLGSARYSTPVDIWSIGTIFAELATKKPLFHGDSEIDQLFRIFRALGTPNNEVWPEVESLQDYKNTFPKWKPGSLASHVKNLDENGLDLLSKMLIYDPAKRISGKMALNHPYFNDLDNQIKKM
Cyclin-dependent kinase/G2/mitotic-specific cyclin- 1, sequence (P14635 whole entry, further chain): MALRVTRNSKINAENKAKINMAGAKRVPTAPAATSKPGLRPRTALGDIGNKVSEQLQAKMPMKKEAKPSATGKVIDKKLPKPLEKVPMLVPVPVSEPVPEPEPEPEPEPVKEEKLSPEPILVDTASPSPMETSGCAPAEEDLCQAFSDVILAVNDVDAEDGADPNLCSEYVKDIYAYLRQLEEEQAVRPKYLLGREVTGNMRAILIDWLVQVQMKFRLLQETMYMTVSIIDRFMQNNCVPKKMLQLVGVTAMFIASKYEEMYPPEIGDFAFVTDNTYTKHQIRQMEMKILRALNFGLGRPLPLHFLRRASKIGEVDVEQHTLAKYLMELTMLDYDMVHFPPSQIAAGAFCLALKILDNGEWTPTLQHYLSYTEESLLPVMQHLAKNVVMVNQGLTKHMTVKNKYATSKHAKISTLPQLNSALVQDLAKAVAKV
Platelet-derived growth factor receptor beta, sequence (P09619 whole entry): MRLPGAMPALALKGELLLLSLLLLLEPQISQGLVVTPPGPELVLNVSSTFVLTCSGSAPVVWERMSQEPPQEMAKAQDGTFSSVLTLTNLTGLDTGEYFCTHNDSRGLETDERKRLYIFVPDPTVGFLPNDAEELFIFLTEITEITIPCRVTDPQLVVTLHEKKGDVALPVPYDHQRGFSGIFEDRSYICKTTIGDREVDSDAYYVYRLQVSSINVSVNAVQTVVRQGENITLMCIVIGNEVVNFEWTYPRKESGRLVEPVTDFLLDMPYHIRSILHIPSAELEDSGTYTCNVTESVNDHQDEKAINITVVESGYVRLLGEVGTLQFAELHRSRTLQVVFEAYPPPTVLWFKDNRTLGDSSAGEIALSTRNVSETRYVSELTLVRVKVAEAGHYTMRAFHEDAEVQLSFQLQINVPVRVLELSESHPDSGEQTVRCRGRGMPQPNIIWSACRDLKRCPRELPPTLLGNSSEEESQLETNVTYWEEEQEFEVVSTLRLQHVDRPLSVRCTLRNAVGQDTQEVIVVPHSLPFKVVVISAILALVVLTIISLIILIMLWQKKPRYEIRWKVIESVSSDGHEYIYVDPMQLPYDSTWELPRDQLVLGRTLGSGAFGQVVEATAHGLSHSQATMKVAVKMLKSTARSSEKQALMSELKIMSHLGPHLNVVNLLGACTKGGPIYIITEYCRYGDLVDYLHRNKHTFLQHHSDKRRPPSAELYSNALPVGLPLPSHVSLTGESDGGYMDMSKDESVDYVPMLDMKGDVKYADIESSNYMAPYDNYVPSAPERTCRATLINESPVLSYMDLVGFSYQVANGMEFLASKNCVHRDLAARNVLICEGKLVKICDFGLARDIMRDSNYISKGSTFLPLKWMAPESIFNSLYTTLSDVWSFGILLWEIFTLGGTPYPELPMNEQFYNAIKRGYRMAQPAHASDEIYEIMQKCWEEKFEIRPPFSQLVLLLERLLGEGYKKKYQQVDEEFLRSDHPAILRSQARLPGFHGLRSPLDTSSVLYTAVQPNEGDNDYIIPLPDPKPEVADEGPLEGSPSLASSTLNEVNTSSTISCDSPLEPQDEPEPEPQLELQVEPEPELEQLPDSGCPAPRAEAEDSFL
Vascular endothelial growth factor receptor 2, sequence (O08775 whole entry): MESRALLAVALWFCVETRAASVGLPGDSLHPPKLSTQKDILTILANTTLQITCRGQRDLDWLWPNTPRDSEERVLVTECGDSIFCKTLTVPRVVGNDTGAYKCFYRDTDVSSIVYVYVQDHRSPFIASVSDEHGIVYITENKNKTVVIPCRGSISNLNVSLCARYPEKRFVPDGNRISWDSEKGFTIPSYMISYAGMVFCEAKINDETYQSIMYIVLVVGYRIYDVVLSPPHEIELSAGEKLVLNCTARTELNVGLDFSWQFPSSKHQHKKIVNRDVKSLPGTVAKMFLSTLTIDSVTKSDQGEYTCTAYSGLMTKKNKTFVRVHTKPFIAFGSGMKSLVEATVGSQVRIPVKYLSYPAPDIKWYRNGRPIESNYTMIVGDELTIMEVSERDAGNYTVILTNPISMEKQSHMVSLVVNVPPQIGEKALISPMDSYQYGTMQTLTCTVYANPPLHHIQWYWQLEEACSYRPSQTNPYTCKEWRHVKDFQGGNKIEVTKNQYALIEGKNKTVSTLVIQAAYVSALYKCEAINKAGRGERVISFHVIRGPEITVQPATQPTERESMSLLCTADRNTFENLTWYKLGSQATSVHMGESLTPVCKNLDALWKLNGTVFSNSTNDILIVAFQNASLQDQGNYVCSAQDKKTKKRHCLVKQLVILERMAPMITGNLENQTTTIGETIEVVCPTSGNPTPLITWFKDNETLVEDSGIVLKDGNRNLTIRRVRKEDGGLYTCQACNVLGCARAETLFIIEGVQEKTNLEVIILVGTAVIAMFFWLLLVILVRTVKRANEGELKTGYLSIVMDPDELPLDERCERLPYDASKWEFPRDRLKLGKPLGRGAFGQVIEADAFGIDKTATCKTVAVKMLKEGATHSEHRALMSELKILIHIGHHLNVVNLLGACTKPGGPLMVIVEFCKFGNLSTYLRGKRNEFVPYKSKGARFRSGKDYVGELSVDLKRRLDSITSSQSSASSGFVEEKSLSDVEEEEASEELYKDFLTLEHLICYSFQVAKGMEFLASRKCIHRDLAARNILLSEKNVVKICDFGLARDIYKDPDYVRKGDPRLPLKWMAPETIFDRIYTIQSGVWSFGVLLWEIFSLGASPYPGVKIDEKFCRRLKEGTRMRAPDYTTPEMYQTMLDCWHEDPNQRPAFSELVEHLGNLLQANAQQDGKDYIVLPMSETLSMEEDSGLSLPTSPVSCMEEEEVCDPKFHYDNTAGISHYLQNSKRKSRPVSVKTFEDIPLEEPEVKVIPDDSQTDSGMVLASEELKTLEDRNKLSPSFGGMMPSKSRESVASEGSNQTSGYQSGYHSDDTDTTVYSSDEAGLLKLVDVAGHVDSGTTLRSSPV

`OCCNc1cncc(-c2cncc(Nc3cccc(Cl)c3)n2)c1` [2-{5-[6-(3-Chloro-phenylamino)-pyrazin-2-yl]-pyridin-3-ylamino}-ethanol] gave an IC50 in experiment [1] of more than 10 µM.

In experiment [1] (pH 8, 30 °C), `OCCCNc1cncc(-c2cncc(Oc3cccc(Cl)c3)n2)c1` [3-({5-[6-(3-chlorophenoxy)pyrazin-2-yl]pyridin-3-yl}amino)propan-1-ol] came in with a half-maximal inhibitory concentration (IC50) of more than 10 µM.

In experiment [1] (pH 8, 30 °C), `OCCCNc1cncc(-c2cncc(NCc3ccccc3)n2)c1` [3-[5-(6-Benzylamino-pyrazin-2-yl)-pyridin-3-yl-amino]-propan-1-ol] displayed an IC50 of more than 10 µM.

In turn, `OCCCNc1cncc(-c2cncc(Nc3cccc(F)c3)n2)c1` [3-[(5-{6-[(3-fluorophenyl)amino]pyrazin-2-yl}pyridin-3-yl)amino]propan-1-ol] gave a concentration for half-maximal inhibition (IC50) in experiment [1] (pH 8, 30 °C) of more than 10 µM.

On to `Nc1ncc(NCCCO)cc1-c1cncc(Nc2cccc(Cl)c2)n1` [3-[(6-amino-5-{6-[(3-chlorophenyl)amino]pyrazin-2-yl}pyridin-3-yl)amino]propan-1-ol], for which the IC50 in experiment [1] was more than 10 µM.

As to `OCCCNc1cnc(Cl)c(-c2cncc(Nc3cccc(Cl)c3)n2)c1` [3-[(6-chloro-5-{6-[(3-chlorophenyl)amino]pyrazin-2-yl}pyridin-3-yl)amino]propan-1-ol], the IC50 in experiment [1] is more than 10 µM.

Turning to `COc1cccc(Nc2cncc(-c3cncc(NCCCO)c3)n2)c1` [3-[[5-[6-[(3-Methoxyphenyl)amino]pyrazinyl]-3-pyridinyl]-1-propanol], in experiment [1] (pH 8, 30 °C), the IC50 was more than 10 µM.

In turn, `OCCCNc1cncc(-c2cncc(Nc3cccc(Cl)c3)n2)c1` [3-[[5-[6-[(3-chlorophenyl)amino]pyrazinyl]-3-pyridinyl]amino]-1-propanol] registered an IC50 in experiment [1] of more than 10 µM.

In experiment [1] (pH 8, 30 °C), `OCCCNc1cncc(-c2cncc(Nc3ccccc3Cl)n2)c1` [3-{5-[6-(2-Chloro-phenylamino)-pyrazin-2-yl]-pyridin-3-ylamino}-propan-1-ol] displayed an IC50 of more than 10 µM.

In experiment [1], `OCCCNc1cnc(F)c(-c2cncc(Nc3cccc(Cl)c3)n2)c1` [3-{5-[6-(3-Chloro-phenylamino)-pyrazin-2-yl]-6-fluoropyridin-3-ylamino}-propan-1-ol] gave an IC50 of more than 10 µM.

Molecule `O=C(CCCNc1cncc(-c2cncc(Nc3cccc(Cl)c3)n2)c1)N1CCCCC1` [4-[(5-{6-[(3-chlorophenyl)amino]pyrazin-2-yl}pyridin-3-yl)amino]-1-(piperidin-1-yl)butan-1-one] had a half-maximal inhibitory concentration (IC50) in experiment [1] of more than 10 µM.

Molecule `OCCCCNc1cncc(-c2cncc(Nc3cccc(Cl)c3)n2)c1` [4-[(5-{6-[(3-chlorophenyl)amino]pyrazin-2-yl}pyridin-3-yl)amino]butan-1-ol] registered an IC50 in experiment [1] of more than 10 µM.

On to `O=C(NCCCO)c1cncc(-c2cncc(Nc3cccc(Cl)c3)n2)c1` [5-[6-(3-Chloro-phenylamino)-pyrazin-2-yl]-N-(3-hydroxy-propyl)-nicotinamide], for which the IC50 in experiment [1] was more than 10 µM.

The molecule `Clc1cccc(Nc2cncc(-c3cncc(NCCOc4ccccc4)c3)n2)c1` [(3-Chloro-phenyl)-{6-[5-(2-phenoxy-ethylamino)-pyridin-3-yl]-pyrazin-2-yl}-amine] registered an IC50 in experiment [1] of more than 10 µM.

`Clc1ccc(Nc2cncc(-c3cncc(NCCCc4ccncc4)c3)n2)cc1` [(4-Chloro-phenyl)-{6-[5-(3-pyridin-4-yl-propylamino)pyridin-3-yl]-pyrazin-2-yl}-amine] yielded an IC50 in experiment [1] (pH 8, 30 °C) of more than 10 µM.

On to `Clc1ccc(Nc2cncc(-c3cncc(NCCCc4ccncc4)c3)n2)cc1Cl` [N-(3,4-dichlorophenyl)-6-(5-{[3-(pyridin-4-yl)propyl]amino}pyridin-3-yl)pyrazin-2-amine], for which the IC50 in experiment [1] (pH 8, 30 °C) was more than 10 µM.

For the molecule `Clc1cccc(Nc2cncc(-c3cncc(NCCCn4cccn4)c3)n2)c1` [N-(3-Chlorophenyl)-6-[5-[[3-(1H-pyrazol-1-yl)propyl]-amino]-3-pyridinyl]-2-pyrazinamine], in experiment [1], the IC50 was more than 10 µM.

Regarding `Clc1cccc(Nc2cncc(-c3cncc(NCCCn4cncn4)c3)n2)c1` [N-(3-chlorophenyl)-6-(5-{[3-(1H-1,2,4-triazol-1-yl)propyl]amino}pyridin-3-yl)pyrazin-2-amine], the IC50 in experiment [1] was more than 10 µM.

Molecule `CN1CCN(CCCNc2cncc(-c3cncc(Nc4cccc(Cl)c4)n3)c2)CC1` [N-(3-chlorophenyl)-6-(5-{[3-(4-methylpiperazin-1-yl)propyl]amino}pyridin-3-yl)pyrazin-2-amine] showed an IC50 in experiment [1] of more than 10 µM.

In experiment [1], `CN(C)CCCNc1cncc(-c2cncc(Nc3cccc(Cl)c3)n2)c1` [N-(3-chlorophenyl)-6-(5-{[3-(dimethylamino)propyl]amino}pyridin-3-yl)pyrazin-2-amine] had a concentration for half-maximal inhibition (IC50) of more than 10 µM.

For `Clc1cccc(Nc2cncc(-c3cncc(NCCCc4ccncc4)c3)n2)c1` [N-(3-chlorophenyl)-6-(5-{[3-(pyridin-4-yl)propyl]amino}pyridin-3-yl)pyrazin-2-amine], in experiment [1] (pH 8, 30 °C), the concentration for half-maximal inhibition (IC50) was more than 10 µM.

`Clc1cccc(Nc2cncc(-c3cncc(NCCCc4ccccc4)c3)n2)c1` [N-(3-chlorophenyl)-6-{5-[(3-phenylpropyl)amino]pyridin-3-yl}pyrazin-2-amine]: in experiment [1], the IC50 is more than 10 µM.

Consider `Clc1cccc(Nc2cncc(-c3cncc(NCC4CCOCC4)c3)n2)c1` [N-(3-chlorophenyl)-6-{5-[(oxan-4-ylmethyl)amino]pyridin-3-yl}pyrazin-2-amine], for which the IC50 in experiment [1] is more than 10 µM.

For the molecule `COCCC(=O)Nc1cncc(-c2cncc(Nc3cccc(Cl)c3)n2)c1` [N-(5-{6-[(3-chlorophenyl)amino]pyrazin-2-yl}pyridin-3-yl)-3-methoxypropanamide], in experiment [1], the IC50 was more than 10 µM.

Consider `CN(C)c1ccc(C(=O)Nc2cncc(-c3cncc(Nc4cccc(Cl)c4)n3)c2)cc1` [N-(5-{6-[(3-chlorophenyl)amino]pyrazin-2-yl}pyridin-3-yl)-4-(dimethylamino)benzamide], for which the IC50 in experiment [2] and in experiment [1] was more than 10 µM throughout.

With `Clc1cccc(Nc2cncc(-c3cncc(NCCCN4CCOCC4)c3)n2)c1` [N-[5-[6-[(3-Chlorophenyl)amino]pyrazinyl]-3-pyridinyl]-4-morpholinepropanamine], in experiment [1], the concentration for half-maximal inhibition (IC50) is more than 10 µM.

Consider `O=C(COCc1ccccc1)Nc1cncc(-c2cncc(Nc3cccc(Cl)c3)n2)c1` [N-{5-[6-(3-Chloro-phenylamino)-pyrazin-2-yl]-pyridin-3-yl}-2-benzyloxy-acetamide], for which, in experiment [1], the half-maximal inhibitory concentration (IC50) is more than 10 µM.

The molecule `O=C(CO)Nc1cncc(-c2cncc(Nc3cccc(Cl)c3)n2)c1` [N-{5-[6-(3-Chloro-phenylamino)-pyrazin-2-yl]-pyridin-3-yl}-2-hydroxy-acetamide] registered an IC50 in experiment [1] of more than 10 µM.

In experiment [1], `COCC(=O)Nc1cncc(-c2cncc(Nc3cccc(Cl)c3)n2)c1` [N-{5-[6-(3-Chloro-phenylamino)-pyrazin-2-yl]-pyridin-3-yl}-2-methoxy-acetamide] had an IC50 of more than 10 µM.

In experiment [1], `O=C(COc1ccccc1)Nc1cncc(-c2cncc(Nc3cccc(Cl)c3)n2)c1` [N-{5-[6-(3-Chloro-phenylamino)-pyrazin-2-yl]-pyridin-3-yl}-2-phenoxy-acetamide] returned an IC50 of more than 10 µM.

For the molecule `CN(C)CCNc1cncc(-c2cncc(Nc3cccc(Cl)c3)n2)c1` [N-{5-[6-(3-Chloro-phenylamino)-pyrazin-2-yl]-pyridin-3-yl}-N ,N -dimethyl-ethane-1,2-diamine], the IC50 in experiment [1], in experiment [3] and in experiment [4] was more than 10 µM each time.

In turn, `Nc1cncc(-c2cncc(Nc3cccc(Cl)c3)n2)c1` [[6-(5-Amino-pyridin-3-yl)-pyrazin-2-yl]-(3-chloro-phenyl)-amine] had a half-maximal inhibitory concentration (IC50) in experiment [1] (pH 8, 30 °C) of more than 10 µM.

These data come from BindingDB's records for doi:10.1021/jm058205b (Johnson & Johnson Pharmaceutical, 2005).
